Results as given in ChEMBL document CHEMBL1201862, “PubChem BioAssay data set” (2004).
Active and inactive are the calls of the source.

Experiments:
[1] = viability loss in HepG2 hepatoma cells – cell-based, cherry-picks, set 5, cytotoxicity control, dose response (AID 1053118); format: functional
[2] = viability loss in HEK293 kidney cells – cell-based, cherry-picks, set 5, cytotoxicity control, dose response (AID 1053117); format: functional
[3] = blockers of FN fibrillogenesis by fibroblasts – AH1F cells, Alexa488-FN fluorescence, cherry-picks, dose response (AID 1035475); format: functional, cell-based
[4] = target: Metabotropic glutamate receptor 5 (Rattus norvegicus, UniProt P31424); assay: Identification of a glycine sulfonamide based non-MPEP site positive allosteric potentiator (PAM) of mGlu5 (calcium_assay).; format: functional
Chain of Metabotropic glutamate receptor 5 (P31424 whole entry): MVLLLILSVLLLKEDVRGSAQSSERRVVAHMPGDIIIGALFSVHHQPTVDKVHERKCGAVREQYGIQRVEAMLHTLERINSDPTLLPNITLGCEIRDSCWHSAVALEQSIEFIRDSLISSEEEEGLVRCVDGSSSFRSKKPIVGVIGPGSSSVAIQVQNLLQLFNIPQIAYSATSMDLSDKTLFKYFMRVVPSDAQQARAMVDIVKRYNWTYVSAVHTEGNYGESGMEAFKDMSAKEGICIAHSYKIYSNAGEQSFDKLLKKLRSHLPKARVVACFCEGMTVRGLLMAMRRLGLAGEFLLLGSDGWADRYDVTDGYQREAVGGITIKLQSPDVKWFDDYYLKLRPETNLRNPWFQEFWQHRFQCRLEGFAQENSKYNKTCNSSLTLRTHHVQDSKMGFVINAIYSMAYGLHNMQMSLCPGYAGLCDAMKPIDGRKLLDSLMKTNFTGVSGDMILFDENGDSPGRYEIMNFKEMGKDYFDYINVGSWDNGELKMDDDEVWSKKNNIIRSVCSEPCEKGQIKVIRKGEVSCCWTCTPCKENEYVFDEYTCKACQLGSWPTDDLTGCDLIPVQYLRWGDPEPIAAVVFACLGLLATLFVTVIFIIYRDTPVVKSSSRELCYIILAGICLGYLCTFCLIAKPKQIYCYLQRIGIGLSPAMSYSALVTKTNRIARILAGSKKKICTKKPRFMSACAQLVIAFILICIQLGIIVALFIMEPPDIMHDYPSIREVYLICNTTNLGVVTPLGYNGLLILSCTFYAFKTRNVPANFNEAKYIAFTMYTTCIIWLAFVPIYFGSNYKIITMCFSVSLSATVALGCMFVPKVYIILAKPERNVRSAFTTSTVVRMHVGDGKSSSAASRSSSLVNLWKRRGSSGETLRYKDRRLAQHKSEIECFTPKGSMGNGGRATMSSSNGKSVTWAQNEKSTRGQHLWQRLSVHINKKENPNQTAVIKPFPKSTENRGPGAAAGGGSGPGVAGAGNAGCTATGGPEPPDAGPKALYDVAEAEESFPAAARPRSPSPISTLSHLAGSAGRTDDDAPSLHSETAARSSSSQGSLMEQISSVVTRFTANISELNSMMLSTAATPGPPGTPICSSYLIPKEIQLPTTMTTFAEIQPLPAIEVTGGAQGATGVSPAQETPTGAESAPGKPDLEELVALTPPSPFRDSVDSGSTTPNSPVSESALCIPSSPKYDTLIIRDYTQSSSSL

[5] = HepG2 hepatoma cell viability loss – plate reader, dry powder, cytotoxicity control, dose response (AID 651947); format: functional, cell-based
[6] = inhibitors of TRPM1-promoter reporter in SK-MEL-5 – cell-based, luciferase, dry powder, set 9, MITF inhibitor project, dose response (AID 651588); format: functional
[7] = cytotoxicity in MITF-independent A375 cells – cell-based, CellTiter-Glo luminescence, dry powder, set 4, counter-screen for MITF inhibitor project, dose response (AID 624364); format: functional; conditions: A-375;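 also: A375 melanoma cells are MITF independent so this is a counter screen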
[8] = viability loss in MITF-independent A375 cells – cell-based, CellTiter-Glo luminescence, dry powder, set 7, counter-screen for MITF inhibitor project, dose response (AID 624490); format: functional; conditions: A-375
[9] = MITF Orthogonal Assay: MALME3 CTG Assay Measured in Cell-Based System Using Plate Reader - 2084-04_Inhibitor_Dose_DryPowder_Activity_Set6.; format: functional; conditions: MALME-3
[10] = growth inhibition of SK-MEL-5 melanoma cells – cell-based, CellTiter-Glo luminescence, dry powder, set 8, orthogonal assay for MITF inhibitor project, dose response (AID 651586); format: functional
[11] = growth inhibition of MALME3 cells – cell-based, CellTiter-Glo luminescence, dry powder, set 5, orthogonal assay for MITF inhibitor project, dose response (AID 651584); format: functional; conditions: MALME-3
[12] = cytotoxicity in melanoma parental cells – cell-based, CellTiter-Glo, dry powder, set 6, MITF inhibitor project, dose response (AID 624429); format: functional; conditions: SK-MEL-5
[13] = MITF Orthogonal Assay: SK-MEL-5 CTG Assay Measured in Cell-Based System Using Plate Reader - 2084-02_Inhibitor_Dose_DryPowder_Activity_Set5.; format: functional
[14] = viability loss in MITF-independent A375 cells – cell-based, CellTiter-Glo luminescence, dry powder, set 6, counter-screen for MITF inhibitor project, dose response (AID 624488); format: functional; conditions: A-375
[15] = cytotoxicity in MITF-independent A375 cells – cell-based, CellTiter-Glo luminescence, dry powder, set 9, counter-screen for MITF modulator project, dose response (AID 651591); format: functional; conditions: A-375
[16] = MITF Measured in Cell-Based System Using Plate Reader - 2084-01_Inhibitor_Dose_DryPowder_Activity_Set6.; format: functional
[17] = viability loss in MITF-independent A375 cells – cell-based, CellTiter-Glo luminescence, dry powder, set 2, counter-screen for MITF inhibitor project, dose response (AID 624489); format: functional; conditions: A-375;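 also: actives are compounds lowering A375 viability meaning general cytotoxicity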
[18] = MITF Measured in Cell-Based System Using Plate Reader - 2084-01_Inhibitor_Dose_DryPowder_Activity_Set7.; format: functional
[19] = melanocyte viability loss, MITF-dependent cells, cell-based, plate reader, dry powder, cytotoxicity control, dose response (AID 651920); format: functional
[20] = inhibitors of non-replicating M. tuberculosis, dose response, luciferase, dry powder (AID 651619); format: functional; conditions: Mycobacterium tuberculosis
[21] = viability loss in HEK293T cells – cell-based, CellTiter-Glo luminescence, dry powder, set 6, cytotoxicity control, dose response (AID 651949); format: functional; conditions: HEK293
[22] = inhibitors of non-replicating M. tuberculosis, dose response, luciferase, dry powder (AID 651620); format: functional; conditions: Mycobacterium tuberculosis
[23] = growth inhibition of replicating M. tuberculosis, dose response, counter-screen, dry powder, IC90 (AID 651617); format: functional; conditions: Mycobacterium tuberculosis
[24] = target: Delta-type opioid receptor (Homo sapiens, UniProt P41143); assay: Late-stage results from the probe development effort to identify antagonists of OPRK1: fluorescence-based cell-based dose response OPRD1 counterscreen.; format: functional
Chain of Delta-type opioid receptor (P41143 whole entry): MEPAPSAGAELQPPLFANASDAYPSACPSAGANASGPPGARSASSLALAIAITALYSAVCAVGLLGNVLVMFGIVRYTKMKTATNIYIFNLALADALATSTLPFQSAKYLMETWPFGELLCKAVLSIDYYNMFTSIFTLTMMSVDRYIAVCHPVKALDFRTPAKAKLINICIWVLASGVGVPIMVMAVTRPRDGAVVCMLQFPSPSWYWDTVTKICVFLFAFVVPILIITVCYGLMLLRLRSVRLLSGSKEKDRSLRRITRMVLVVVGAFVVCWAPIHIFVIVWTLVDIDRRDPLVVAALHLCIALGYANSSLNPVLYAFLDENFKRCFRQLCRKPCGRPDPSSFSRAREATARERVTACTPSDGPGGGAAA

Mu-type opioid receptor = Mu-type opioid receptor (Homo sapiens, UniProt P35372); assay: Late-stage results from the probe development effort to identify antagonists of OPRK1: luminescence-based cell-based dose response OPRM1 counterscreen.; format: functional
Chain of Mu-type opioid receptor (P35372 whole entry): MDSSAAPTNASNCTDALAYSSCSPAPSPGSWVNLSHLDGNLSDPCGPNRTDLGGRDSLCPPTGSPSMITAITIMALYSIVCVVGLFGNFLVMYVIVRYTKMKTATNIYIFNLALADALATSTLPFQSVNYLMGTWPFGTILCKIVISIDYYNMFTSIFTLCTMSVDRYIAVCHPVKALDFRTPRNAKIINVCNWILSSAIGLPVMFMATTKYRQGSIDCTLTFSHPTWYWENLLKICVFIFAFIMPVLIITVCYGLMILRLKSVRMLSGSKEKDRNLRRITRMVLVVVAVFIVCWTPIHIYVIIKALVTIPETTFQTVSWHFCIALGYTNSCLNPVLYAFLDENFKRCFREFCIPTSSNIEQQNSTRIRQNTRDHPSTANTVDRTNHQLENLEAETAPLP

[25] = viability loss in A549 lung cells – cell-based, 24 h, CellTiter-Glo luminescence, cherry-picks, cytotoxicity control, dose response (AID 1053115); format: functional; conditions: A549, 24 h
Phospholipase D2 = Phospholipase D2 (Homo sapiens, UniProt O14939); assay: PLD2 Cellular Concentration Response Study.; format: functional
Chain of Phospholipase D2 (O14939 whole entry): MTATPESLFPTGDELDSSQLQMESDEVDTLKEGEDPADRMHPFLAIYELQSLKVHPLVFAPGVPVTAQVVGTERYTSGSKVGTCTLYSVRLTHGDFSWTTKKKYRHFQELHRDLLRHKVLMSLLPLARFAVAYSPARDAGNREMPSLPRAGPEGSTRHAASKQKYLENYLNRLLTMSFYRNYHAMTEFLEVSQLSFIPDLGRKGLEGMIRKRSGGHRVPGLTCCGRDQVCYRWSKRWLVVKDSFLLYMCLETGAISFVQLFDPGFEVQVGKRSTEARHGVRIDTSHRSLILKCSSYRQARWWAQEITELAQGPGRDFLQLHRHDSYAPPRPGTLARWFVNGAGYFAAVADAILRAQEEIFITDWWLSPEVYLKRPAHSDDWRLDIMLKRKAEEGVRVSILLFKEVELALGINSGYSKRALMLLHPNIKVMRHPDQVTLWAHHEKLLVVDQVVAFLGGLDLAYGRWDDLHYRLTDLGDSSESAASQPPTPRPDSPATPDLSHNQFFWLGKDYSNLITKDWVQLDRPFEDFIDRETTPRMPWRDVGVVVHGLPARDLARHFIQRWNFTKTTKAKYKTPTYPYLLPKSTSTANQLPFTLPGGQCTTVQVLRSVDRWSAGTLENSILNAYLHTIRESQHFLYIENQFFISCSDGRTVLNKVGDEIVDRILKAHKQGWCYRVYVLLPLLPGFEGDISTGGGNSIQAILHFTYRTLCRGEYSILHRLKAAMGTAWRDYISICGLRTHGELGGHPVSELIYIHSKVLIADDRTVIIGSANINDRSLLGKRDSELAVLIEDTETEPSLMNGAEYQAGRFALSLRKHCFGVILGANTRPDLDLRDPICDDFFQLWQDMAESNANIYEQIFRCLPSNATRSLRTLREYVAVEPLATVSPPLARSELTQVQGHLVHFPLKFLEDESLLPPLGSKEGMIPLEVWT

Phospholipase D1 = Phospholipase D1 (Homo sapiens, UniProt Q13393); assay: PLD1 Cellular Concentration Response Study.; format: functional
Chain of Phospholipase D1 (Q13393 whole entry): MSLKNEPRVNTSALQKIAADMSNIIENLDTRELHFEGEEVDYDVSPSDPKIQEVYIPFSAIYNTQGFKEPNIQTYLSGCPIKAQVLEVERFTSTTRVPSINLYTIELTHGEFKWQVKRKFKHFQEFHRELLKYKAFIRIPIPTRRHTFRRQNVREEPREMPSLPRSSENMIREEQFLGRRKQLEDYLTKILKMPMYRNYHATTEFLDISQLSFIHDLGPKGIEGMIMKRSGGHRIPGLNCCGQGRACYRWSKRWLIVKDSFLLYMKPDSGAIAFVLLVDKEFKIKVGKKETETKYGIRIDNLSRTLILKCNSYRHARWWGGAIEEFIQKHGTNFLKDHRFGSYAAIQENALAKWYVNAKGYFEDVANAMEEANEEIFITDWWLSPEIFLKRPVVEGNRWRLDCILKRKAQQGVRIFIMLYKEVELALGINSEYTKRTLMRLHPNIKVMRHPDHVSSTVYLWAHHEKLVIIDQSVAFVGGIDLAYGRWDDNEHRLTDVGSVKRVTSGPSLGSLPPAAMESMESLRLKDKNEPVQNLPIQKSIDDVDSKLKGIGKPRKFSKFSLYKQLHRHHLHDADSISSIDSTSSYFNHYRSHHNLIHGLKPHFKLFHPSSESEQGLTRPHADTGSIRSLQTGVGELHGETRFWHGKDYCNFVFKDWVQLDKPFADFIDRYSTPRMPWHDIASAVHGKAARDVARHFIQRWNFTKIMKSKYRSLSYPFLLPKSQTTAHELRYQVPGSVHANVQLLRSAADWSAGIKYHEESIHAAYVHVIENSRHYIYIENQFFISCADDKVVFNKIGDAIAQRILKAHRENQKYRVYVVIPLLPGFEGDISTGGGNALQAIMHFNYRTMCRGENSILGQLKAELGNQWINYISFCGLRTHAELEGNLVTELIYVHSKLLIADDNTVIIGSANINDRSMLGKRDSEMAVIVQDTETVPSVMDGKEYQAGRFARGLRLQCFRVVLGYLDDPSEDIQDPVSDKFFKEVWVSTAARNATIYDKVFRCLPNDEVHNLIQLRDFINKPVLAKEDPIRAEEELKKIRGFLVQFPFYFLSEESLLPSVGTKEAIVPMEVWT

[26] = target: G-protein coupled receptor 183 (Homo sapiens, UniProt P32249); assay: SAR confirmation of small molecule antagonists of the EBI2 receptor via a luminescent beta-arrestin assa.; format: functional
Chain of G-protein coupled receptor 183 (P32249 whole entry): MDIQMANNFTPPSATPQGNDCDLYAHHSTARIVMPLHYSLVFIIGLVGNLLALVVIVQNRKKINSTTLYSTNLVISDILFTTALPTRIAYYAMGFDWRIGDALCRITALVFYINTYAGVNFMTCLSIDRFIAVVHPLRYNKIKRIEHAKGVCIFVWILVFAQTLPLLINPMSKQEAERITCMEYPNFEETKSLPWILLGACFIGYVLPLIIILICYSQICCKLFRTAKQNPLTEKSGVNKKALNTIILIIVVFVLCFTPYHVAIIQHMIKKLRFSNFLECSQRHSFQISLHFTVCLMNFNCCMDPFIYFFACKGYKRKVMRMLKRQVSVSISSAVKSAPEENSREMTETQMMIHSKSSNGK

O=S(=O)(c1cccc(F)c1)N1CC[C@@H]2[C@@H](CO)Nc3ccc(-c4cccc(F)c4)cc3[C@@H]21
AC50 [1]: 27.3 µM (active) | AC50 [2]: 22.6 µM (active) | AC50 [3]: 6.54 µM (active)

CS(=O)(=O)N(CC(=O)Nc1ccc(F)cc1F)c1cc(C(F)(F)F)ccc1Cl
EC50 [4]: 2.41 µM

Cc1ccccc1CSc1nnc(-c2ccccc2)o1
AC50 [5]: 0.308 µM (active)

COC1=C(NS(=O)(=O)c2ccccc2)C(=O)c2ccccc2C1=O
AC50 [6]: 18.9 µM (active) | AC50 [7]: > 70 µM (inactive) | AC50 [8]: > 70 µM (inactive) | AC50 [9]: 31.8 µM (active) | AC50 [10]: 14.5 µM (active) | AC50 [11]: 31.8 µM (active) | AC50 [12]: 16.4 µM (active) | AC50 [13]: 9.13 µM (active) | AC50 [14]: > 70 µM (inactive) | AC50 [15]: > 70 µM (inactive) | AC50 [16]: 6.32 µM (active) | AC50 [17]: > 70 µM (inactive) | AC50 [18]: 7.44 µM (active) | AC50 [19]: 27.5 µM (active)

c1ccc(-n2cc(CSc3nnc(C4CCC4)o3)nn2)cc1
IC90 [20]: 2 µM (active) | AC50 [21]: > 52 µM (inactive) | IC90 [22]: 2 µM (active) | IC90 [23]: 62 µM (active)

CC(C)OC(=O)c1cc(Br)cnc1N1CCC(NC2CCCCC2)CC1
IC50 [24]: 3 µM (active) | IC50 (Mu-type opioid receptor): 20 µM (inactive)

OC[C@H]1Nc2ccc(-c3cccc(F)c3)cc2[C@H]2[C@@H]1CCN2Cc1ccc(F)cc1
AC50 [25]: 45.3 µM (active)

O=C(NCCN1CCC2(CC1)C(=O)NCN2Cc1ccncc1)c1ccc2ccccc2c1
IC50 (Phospholipase D2): 0.85 µM (active) | IC50 (Phospholipase D1): 20 µM (active)

O=C(/C=C/c1ccccc1)N1CCN(Cc2ccc(Cl)cc2)CC1
IC50 [26]: 0.0984 µM (active)
